In US20240317776A1, “SOLID FORMS OF 4-(3,3-DIFLUORO-2,2-DIMETHYL-PROPANOYL)-3,5-DIHYDRO-2H-PYRIDO[3,4-F][1,4]OXAZEPINE-9-CARBONITRILE” (Denali Therapeutics Inc., priority 2022, published 2024):

Tests used:
Format in all cases: physicochemical
[1] = Solution stability in pH buffers; details: 37° C.
Experimental: Solution stability study was performed in pH 2.0/4.0/6.0/7.0 (24 hrs) and pH 8.0 (24 hrs and 96 hrs) buffers. Solids were dissolved with pH buffers with target conc. of ˜0.5 mg/ml to form clear solutions and stored at 37° C. for 24 hrs or 96 hrs.

[2] = Physical and chemical stability of solid on storage (XRPD, HPLC purity)
Experimental: To evaluate the physical and chemical stability, Compound (1) Form A was stored in 3 conditions (40° C./75% RH; 25° C./60% RH; and 60° C.) for one and four weeks.

[3] = Dynamic vapor sorption (DVS)
Experimental: DVS was measured via a SMS (Surface Measurement Systems) DVS Intrinsic. The relative humidity at 25° C. were calibrated against deliquescence point of LiCl, Mg(NO3)2 and KCl.
(onset temperature). Considering the low TGA weight loss and single sharp DSC endotherm, Form A was postulated to be an anhydrate. […] The HPLC purity of starting material was measured as 99.78 area % (see chromatogram of FIG. 6) and the impurity summary is listed in Table 2.

[4] = Kinetic solubility in bio-relevant media and H2O; details: for Final Form: 37° C.
Experimental: Solids were suspended in FaSSIF, FeSSIF, SGF and H2O with target conc. of ˜10 mg/mL. The suspensions were agitated on a rolling incubator at 25 rpm (in the incubator set at 37° C.) for 1, 4 and 24 hrs. At each time point, 1 mL of the suspension was pipetted out for centrifugation at 15000 rpm (3 min) and filtration through 0.45 μm membrane to obtain supernatant for HPLC solubility and pH tests, the residual solids were analyzed by XRPD.

[5] = 24-Hrs solubility in pH buffers; details: for Final Form: 24 hrs
Experimental: 24-Hrs solubility of Form A was measured in pH buffers (i.e., pH 2.0, 4.0, 6.0, 7.0, 8.0) at RT. Solids were suspended in pH buffers with target conc. of ˜10 mg/mL.

[6] = pH 7.0 (50 mM Phosphate), 24 hrs
[7] = pH 8.0 (50 mM Phosphate), 24 hrs
[8] = pH 8.0 (50 mM Phosphate), 96 hrs
[9] = all conditions (40° C./75% RH, 25° C./60% RH, 60° C.; one and four weeks)

API (RRT 1.00) ([1]; pH 2.0 (50 mM HCl—KCl), 24 hrs): 84.93 % Area | Imp. 1 (RRT 0.66) ([1]; pH 2.0 (50 mM HCl—KCl), 24 hrs): 0.15 % Area | Imp. 1 (RRT 0.70) ([1]; pH 2.0 (50 mM HCl—KCl), 24 hrs): 0.67 % Area | Imp. 1 (RRT 0.76) ([1]; pH 2.0 (50 mM HCl—KCl), 24 hrs): 14.25 % Area | Imp. 1 (RRT 1.05) ([1]; pH 2.0 (50 mM HCl—KCl), 24 hrs): — (—: <0.05 area %) | Purity vs. initial (%) ([1]; pH 2.0 (50 mM HCl—KCl), 24 hrs): 85.1% | degradation in solution ([1]; pH 2.0 and pH 4.0 buffers, 24 hrs): Degradation was observed | API (RRT 1.00) ([1]; pH 4.0 (50 mM Citrate), 24 hrs): 98.42 % Area | Imp. 1 (RRT 0.66) ([1]; pH 4.0 (50 mM Citrate), 24 hrs): 0.15 % Area | Imp. 1 (RRT 0.70) ([1]; pH 4.0 (50 mM Citrate), 24 hrs): — (—: <0.05 area %) | Imp. 1 (RRT 0.76) ([1]; pH 4.0 (50 mM Citrate), 24 hrs): 0.38 % Area | Imp. 1 (RRT 1.05) ([1]; pH 4.0 (50 mM Citrate), 24 hrs): 0.06 % Area | Purity vs. initial (%) ([1]; pH 4.0 (50 mM Citrate), 24 hrs): 98.5% | API (RRT 1.00) ([1]; pH 6.0 (50 mM Citrate), 24 hrs): 99.75 % Area | Imp. 1 (RRT 0.66) ([1]; pH 6.0 (50 mM Citrate), 24 hrs): 0.13 % Area | Imp. 1 (RRT 0.70) ([1]; pH 6.0 (50 mM Citrate), 24 hrs): — (—: <0.05 area %) | Imp. 1 (RRT 0.76) ([1]; pH 6.0 (50 mM Citrate), 24 hrs): 0.06 % Area | Imp. 1 (RRT 1.05) ([1]; pH 6.0 (50 mM Citrate), 24 hrs): 0.06 % Area | Purity vs. initial (%) ([1]; pH 6.0 (50 mM Citrate), 24 hrs): 99.8% | API (RRT 1.00) [1, 6]: 99.78 % Area | Imp. 1 (RRT 0.66) [1, 6]: 0.15 % Area | Imp. 1 (RRT 0.70) [1, 6]: — (—: <0.05 area %) | Imp. 1 (RRT 0.76) [1, 6]: — (—: <0.05 area %) | Imp. 1 (RRT 1.05) [1, 6]: 0.07 % Area | Purity vs. initial (%) [1, 6]: 99.9% | API (RRT 1.00) [1, 7]: 99.81 % Area | Imp. 1 (RRT 0.66) [1, 7]: 0.13 % Area | Imp. 1 (RRT 0.70) [1, 7]: — (—: <0.05 area %) | Imp. 1 (RRT 0.76) [1, 7]: — (—: <0.05 area %) | Imp. 1 (RRT 1.05) [1, 7]: 0.06 % Area | Purity vs. initial (%) [1, 7]: 100.0% | API (RRT 1.00) [1, 8]: 99.83 % Area | Imp. 1 (RRT 0.66) [1, 8]: 0.13 % Area | Imp. 1 (RRT 0.70) [1, 8]: — (—: <0.05 area %) | Imp. 1 (RRT 0.76) [1, 8]: — (—: <0.05 area %) | Imp. 1 (RRT 1.05) [1, 8]: 0.04 % Area | Purity vs. initial (%) [1, 8]: 100.0% | API (RRT 1.00) ([2]; 1 week, 25° C./60% RH): 99.92 % Area | Description ([2]; 1 week, 25° C./60% RH): White powder | Final Form ([2]; 1 week, 25° C./60% RH): Form A | Imp.1 (RRT 0.68) ([2]; 1 week, 25° C./60% RH): 0.08 % Area | Purity vs. initial (%) ([2]; 1 week, 25° C./60% RH): 100.0% | API (RRT 1.00) ([2]; 1 week, 40° C./75% RH): 99.89 % Area | Description ([2]; 1 week, 40° C./75% RH): White powder | Final Form ([2]; 1 week, 40° C./75% RH): Form A | Imp.1 (RRT 0.68) ([2]; 1 week, 40° C./75% RH): 0.11 % Area | Purity vs. initial (%) ([2]; 1 week, 40° C./75% RH): 100.0% | API (RRT 1.00) ([2]; 1 week, 60° C.): 99.90 % Area | Description ([2]; 1 week, 60° C.): White powder | Final Form ([2]; 1 week, 60° C.): Form A | Imp.1 (RRT 0.68) ([2]; 1 week, 60° C.): 0.10 % Area | Purity vs. initial (%) ([2]; 1 week, 60° C.): 100.0% | API (RRT 1.00) ([2]; 4 weeks, 25° C./60% RH): 99.90 % Area | Description ([2]; 4 weeks, 25° C./60% RH): White powder | Final Form ([2]; 4 weeks, 25° C./60% RH): Form A | Imp.1 (RRT 0.68) ([2]; 4 weeks, 25° C./60% RH): 0.10 % Area | Purity vs. initial (%) ([2]; 4 weeks, 25° C./60% RH): 100.0% | API (RRT 1.00) ([2]; 4 weeks, 40° C./75% RH): 99.90 % Area | Description ([2]; 4 weeks, 40° C./75% RH): White powder | Final Form ([2]; 4 weeks, 40° C./75% RH): Form A | Imp.1 (RRT 0.68) ([2]; 4 weeks, 40° C./75% RH): 0.10 % Area | Purity vs. initial (%) ([2]; 4 weeks, 40° C./75% RH): 100.0% | API (RRT 1.00) ([2]; 4 weeks, 60° C.): 99.90 % Area | Description ([2]; 4 weeks, 60° C.): White powder | Final Form ([2]; 4 weeks, 60° C.): Form A | Imp.1 (RRT 0.68) ([2]; 4 weeks, 60° C.): 0.10 % Area | Purity vs. initial (%) ([2]; 4 weeks, 60° C.): 100.0% | HPLC purity change on storage [2, 9]: no obvious HPLC purity change | form change on storage (XRPD) [2, 9]: no form change | water uptake (DVS) ([3]; 25° C./80% RH): 0.024% | form change after DVS test (XRPD) ([3]; after DVS test): no form change | Final Form ([4]; FaSSIF (pH 6.5), 1 hr): Form A | Final Form ([4]; FaSSIF (pH 6.5), 4 hr): Form A | Final Form ([4]; FaSSIF (pH 6.5), 24 hr): Form A | Final Form ([4]; FeSSIF (pH 5.0), 1 hr): Form A | Final Form ([4]; FeSSIF (pH 5.0), 4 hr): Form A | Final Form ([4]; FeSSIF (pH 5.0), 24 hr): Form A | Final Form ([4]; H2O (pH 6.5), 1 hr): Form A | Final Form ([4]; H2O (pH 6.5), 4 hr): Form A | Final Form ([4]; H2O (pH 6.5), 24 hr): Form A | Final Form ([4]; SGF (pH 1.8), 1 hr): Form A | Final Form ([4]; SGF (pH 1.8), 4 hr): Form A | Final Form ([4]; SGF (pH 1.8), 24 hr): Form A | form change after kinetic solubility test (XRPD) ([4]; bio-relevant media or H2O): No form change | Final Form ([5]; pH 2.0 (50 mM HCl—KCl)): Form A | Final Form ([5]; pH 4.0 (50 mM Citrate)): Form A | Final Form ([5]; pH 6.0 (50 mM Citrate)): Form A | Final Form ([5]; pH 7.0 (50 mM Phosphate)): Form A | Final Form ([5]; pH 8.0 (50 mM Phosphate)): Form A | form change after equilibrium solubility evaluation (XRPD) ([5]; pH buffers): no form change
Structure (SMILES): CC(C)(C(=O)N1CCOc2c(C#N)cncc2C1)C(F)F [Form A, 4-(3,3-difluoro-2,2-dimethyl-propanoyl)-3,5-dihydro-2H-pyrido[3,4-f][1,4]oxazepine-9-carbonitrile]
